These results are taken from patent US12570612B2, “Substituted nitrogen heterocyclic compound and anesthetic effect thereof” (priority 2019, dated 2026).

Bounds are passed on as bounds.

The subject of one series is Sprague-Dawley rats. Description: animal or person. To be noted: Rattus norvegicus. How it is done: Adult male Sprague-Dawley rats (250-300 g) were selected for the experiment. […] The anesthesia effects of the compounds were assessed in rats using a LORR assay and a period >30 s was considered as an indicator of general anesthesia.
Usually ED50 stands for the midpoint of the dose-response relation. The compound `CCOC(=O)c1c(F)cnn1[C@H](C)c1ccccc1` [Compound A70] showed a median effective dose (ED50) of 1 to 2 mg/kg.

The series is the same for the next values; noted with them: rats.
Turning to `CCOC(=O)c1c(F)cnn1[C@H](C)c1ccccc1` [Compound A70], the Approximate therapeutic index was greater than 6 and the Minimal lethal dose is recorded as greater than 12 mg/kg.

A further series deals with Sprague-Dawley rats. Description: Pharmacological characteristics at equivalent doses (2ED50), Group A compounds. Format: in vivo. To be noted: 2ED50, tail vein.
`CCOC(=O)c1c(F)cnn1[C@H](C)c1ccccc1` [Compound A70]: the Onset time stood at 0.31 ± 0.08 min and the Righting reflex duration worked out at 2.51 ± 1.03 min.

A further series relates to H295R cell line. The series can be described thus: Adrenocortical function in vitro test: secretion of cortisol and corticosterone, Group A compounds. It is filed as cell-based. The settings on record: H295 cells.
`CCOC(=O)c1c(F)cnn1[C@H](C)c1ccccc1` [Compound A70]: the “Corticosterone as an indicator to determine the presence of inhibition” value is reported as 0 and the “Cortisol as an indicator to determine the presence of inhibition” value was determined as 0.

Staying with this series, now noted: Homo sapiens; H295 cells, 0.1-10000 nM, HPLC-MS/MS; read-out: EC50 (Corticosterone).
The EC50 is the concentration at which the effect is half-maximal. On to `CCOC(=O)c1c(F)cnn1[C@H](C)c1ccccc1` [Compound A70], for which the EC50 was greater than 100 nM.

The same series, now with this note: Homo sapiens; H295 cells, 0.1-10000 nM, HPLC-MS/MS; read-out: EC50 (Cortisol).
Regarding `CCOC(=O)c1c(F)cnn1[C@H](C)c1ccccc1` [Compound A70], the concentration giving a half-maximal response (EC50) was greater than 100 nM.

A further series has as its system Sprague-Dawley rats. Description: animal or person. It is filed as in vivo. The settings on record: LORR, up and down method, tail vein, rats; class symbols. From the text:
Evaluating indicator: The end point of anesthesia: LORR was used as the end point of anesthesia; General anesthesia effect: the disappearance of forepaw righting reflex in rats lasting for 30 seconds is taken as the index of general anesthesia effect; Anesthesia recovery index: the recovery of rat forepaw righting reflex was used as the index of anesthesia recovery.
As to `CC#CCOCC(=O)c1ccnn1[C@H](C)c1ccccc1` [Compound C1], the median effective dose (ED50) entry is “++++ (++++ indicates that the measured ED50 is in the range of 2.00-10.00 mg/kg (excluding 2.00 mg/kg, including 6.00 mg/kg))”.

The same series, now with this note: Rattus norvegicus; LORR, up and down method, tail vein, rats; class symbols; read-out: ED50.
On to `CC#CC(=O)c1cncn1[C@H](C)c1ccccc1` [Compound C54], for which the median effective dose (ED50) fell in the range of 20 to 30 mg/kg.
On the same count and under the same terms, the figure for `CC(=O)OCC(=O)c1cncn1[C@H](C)c1ccccc1` [Compound C53] is 10 to 20 mg/kg; for `C[C@H](c1ccccc1)n1cncc1C(=O)COCC1CCC1` [Compound C29] it is 2 to 10 mg/kg.
With `CC(=O)COCC(=O)c1c(F)ncn1[C@H](C)c1ccccc1` [Compound C84], the ED50 fell in the range of 10 to 20 mg/kg.

The subject of the next series is Sprague-Dawley rats. Description: Pharmacological effect and adverse reactions under the equivalent dose (2ED50), Group C compounds. To be noted: 2ED50, tail vein, rats, n=8. It is filed as in vivo. From the text: Evaluation index: onset time: from the completion of drug injection to the disappearance of forepaw righting reflex in rats; Duration of anesthesia: the time from the disappearance of rat forepaw righting reflex to the recovery of rat forepaw righting reflex; Recovery time of anesthesia: the time from the […] to complete recovery;
For `CC#CCOCC(=O)c1ccnn1[C@H](C)c1ccccc1` [Compound C1], the Righting reflex duration stood at 0.90 ± 0.30 min and the Sedation duration worked out at 9.06 ± 1.21 min.

The series is the same for the next values; noted with them: 2ED50, tail vein, rats, n=8; unit min.
For the compound `CC#CCOCC(=O)c1ccnn1[C@H](C)c1ccccc1` [Compound C1], the Onset time is recorded as less than 1 min.

The series is the same for the next values; noted with them: equivalent dose (2ED50), number of rats of n = 8.
For the compound `CC#CCOCC(=O)c1ccnn1[C@H](C)c1ccccc1` [Compound C1], the “Adverse reaction: Convulsions” value came to 0; the “Adverse reaction: Cough, broken-winded” value is listed as 0; the “Adverse reaction: Euphoria” value was 2; the “Adverse reaction: Red urine” value is listed as 8. In addition, the “Adverse reaction: Slower breathing, Tetany convulsion” value came to 0; the “Adverse reaction: Systemic stiffness, Convulsions, Opisthotonus” value is 0; the “Adverse reaction: Tongue stretching” value amounted to 1; the “Adverse reaction: Tremor” value is reported as 0. The “Adverse reaction: the four limbs rigidity” value came out at 0.

For another series, the system named is Sprague-Dawley rats. The series can be described thus: animal or person. Format: in vivo. The settings on record: LORR, up and down method, tail vein, rats; class symbols. The source holds these as a separate data set. The source says:
Evaluating indicator: The end point of anesthesia: the disappearance of forepaw righting reflex (lorr) was used as the end point of anesthesia; General anesthesia effect: the disappearance of forepaw righting reflex in rats lasting for 30 seconds is taken as the index of general anesthesia effect; Anesthesia recovery index: the recovery of rat forepaw righting reflex was used as the index of anesthesia recovery.
Consider `CC#CCOCC(OC)(OC)C(=O)c1cncn1[C@H](C)c1ccccc1` [Compound D73], for which the 50% effective dose (ED50) entry was “+++++ (+++++ indicates that the measured ED50 is greater than 6.00 mg/kg (excluding 6.00 mg/kg))”.

Still in this series, the particulars now being: Rattus norvegicus; LORR, up and down method, tail vein, rats; class symbols; read-out: ED50.
As for `CCC(CC)OC(=O)C(=O)c1cncn1[C@H](C)c1ccccc1` [Compound D83], the 50% effective dose (ED50) was greater than 6 mg/kg.
In the case of `CC#CCOC(=O)C(=O)c1cncn1[C@H](C)c1ccccc1` [Compound D84], the 50% effective dose (ED50) lay in the range of 2 to 6 mg/kg.
